Results as given in ChEMBL document CHEMBL1201862, “PubChem BioAssay data set” (2004).
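Dose response: 5 concentrations. Exposure: 48 h. Format: 96-well plates. Endpoint: linear interpolation; highest concentration if not reached. Abbreviation: GI50, concentration required for 50% inhibition of growth.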 Activity calls are given as the source filed them. Cut-off read from the data, not from the text of the source: active = GI50 up to about 1.1 µM and inactive = higher.

Experiments:
Assay in all cases: growth of human tumour cells (NCI), 48 h
SK-MEL-5 = system: SK-MEL-5
786-0 = system: 786-0
SF-539 = system: SF-539
MDA-MB-231 = system: MDA-MB-231
SNB-75 = system: SNB-75
HCC 2998 = system: HCC 2998
CAKI-1 = system: CAKI-1
IGROV-1 = system: IGROV-1
SR = system: SR
LOX IMVI = system: LOX IMVI
MDA-N = system: MDA-N
SK-MEL-28 = system: SK-MEL-28
HOP-92 = system: HOP-92
SN12C = system: SN12C
PC-3 = system: PC-3
OVCAR-8 = system: OVCAR-8
RXF 393 = system: RXF 393
MCF7 = system: MCF7
NCI-H23 = system: NCI-H23

SMILES	GI50 (SK-MEL-5)	GI50 (786-0)	GI50 (SF-539)	GI50 (MDA-MB-231)	GI50 (SNB-75)	GI50 (HCC 2998)	GI50 (CAKI-1)	GI50 (IGROV-1)	GI50 (SR)	GI50 (LOX IMVI)	GI50 (MDA-N)	GI50 (SK-MEL-28)	GI50 (HOP-92)	GI50 (SN12C)	GI50 (PC-3)	GI50 (OVCAR-8)	GI50 (RXF 393)	GI50 (MCF7)	GI50 (NCI-H23)
NC(=O)c1ncn(C2CCC(CP(=O)(O)O)C2)c1N (centres undefined)	> 100 µM (inactive)	> 100 µM (inactive)	> 100 µM (inactive)	> 100 µM (inactive)	> 100 µM (inactive)	> 100 µM (inactive)	> 100 µM (inactive)	> 100 µM (inactive)	> 100 µM (inactive)	> 100 µM (inactive)	> 100 µM (inactive)	> 100 µM (inactive)	> 100 µM (inactive)	> 100 µM (inactive)	> 100 µM (inactive)	> 100 µM (inactive)	> 100 µM (inactive)	> 100 µM (inactive)	> 100 µM (inactive)
COc1cccc2c1OC1(C=C2)Oc2ccccc2C(=O)N1C (centres undefined)	68.1 µM (inactive)	35.5 µM (inactive)		27.2 µM (inactive)	16.3 µM (inactive)	26.7 µM (inactive)	8.18 µM (inactive)	27.7 µM (inactive)	3.55 µM (inactive)	2.05 µM (inactive)	15 µM (inactive)	59 µM (inactive)	35.2 µM (inactive)	22.5 µM (inactive)	27.2 µM (inactive)	4.68 µM (inactive)	25.5 µM (inactive)	37.8 µM (inactive)	31.2 µM (inactive)
CCOC(=O)CON=c1c2ccccc2ccc2ccccc12	> 100 µM (inactive)	> 100 µM (inactive)	> 100 µM (inactive)	> 100 µM (inactive)	> 100 µM (inactive)	26.1 µM (inactive)	> 100 µM (inactive)	> 100 µM (inactive)	> 100 µM (inactive)	> 100 µM (inactive)	> 100 µM (inactive)	> 100 µM (inactive)	> 100 µM (inactive)	> 100 µM (inactive)	> 100 µM (inactive)	> 100 µM (inactive)	> 100 µM (inactive)	> 100 µM (inactive)	> 100 µM (inactive)
O=C(C(=O)N1CCc2ccccc21)c1c[nH]c2ccccc12	> 10 µM (inactive)	> 10 µM (inactive)	> 10 µM (inactive)	> 10 µM (inactive)	> 10 µM (inactive)	> 10 µM (inactive)	> 10 µM (inactive)	> 10 µM (inactive)	> 10 µM (inactive)	> 10 µM (inactive)	> 10 µM (inactive)	> 10 µM (inactive)	> 10 µM (inactive)	> 10 µM (inactive)	> 10 µM (inactive)	> 10 µM (inactive)	> 10 µM (inactive)	> 10 µM (inactive)	> 10 µM (inactive)
Cc1c2oc(=O)c(C#N)cc2c2ccccn12	> 100 µM (inactive)	> 100 µM (inactive)	81.7 µM (inactive)	> 100 µM (inactive)	> 100 µM (inactive)	> 100 µM (inactive)	62.8 µM (inactive)	> 100 µM (inactive)	> 100 µM (inactive)	71.9 µM (inactive)	> 100 µM (inactive)	> 100 µM (inactive)	> 100 µM (inactive)		> 100 µM (inactive)	> 100 µM (inactive)	> 100 µM (inactive)	> 100 µM (inactive)	7.64 µM (inactive)
CC(C)(Cl)C(Br)CCC(Br)(CCl)C(Cl)CBr (centres undefined)	> 10 µM (inactive)	> 10 µM (inactive)	> 10 µM (inactive)	> 10 µM (inactive)	> 10 µM (inactive)	> 10 µM (inactive)	> 10 µM (inactive)	> 10 µM (inactive)	> 10 µM (inactive)	> 10 µM (inactive)	> 10 µM (inactive)	> 10 µM (inactive)	> 10 µM (inactive)	> 10 µM (inactive)	> 10 µM (inactive)	> 10 µM (inactive)	> 10 µM (inactive)	> 10 µM (inactive)	> 10 µM (inactive)
O=S1(=O)CCN(Cc2ccccc2)/C1=N\S(=O)(=O)c1ccc(Cl)cc1	21.2 µM (inactive)	19.7 µM (inactive)	18.7 µM (inactive)	> 100 µM (inactive)	21.2 µM (inactive)	19.3 µM (inactive)	19.1 µM (inactive)	17.8 µM (inactive)	24.2 µM (inactive)	18.1 µM (inactive)	18.2 µM (inactive)	18.3 µM (inactive)	18.6 µM (inactive)	19.2 µM (inactive)	18 µM (inactive)	17 µM (inactive)	19.5 µM (inactive)	22.8 µM (inactive)	18.9 µM (inactive)
C/C(=C1/N=C(c2ccccc2)OC1=O)c1cccs1	> 100 µM (inactive)	76 µM (inactive)	> 100 µM (inactive)	66.7 µM (inactive)	76.4 µM (inactive)	> 100 µM (inactive)	> 100 µM (inactive)	63.7 µM (inactive)	> 100 µM (inactive)	> 100 µM (inactive)	> 100 µM (inactive)	> 100 µM (inactive)	> 100 µM (inactive)	> 100 µM (inactive)	> 100 µM (inactive)	68.9 µM (inactive)	> 100 µM (inactive)	> 100 µM (inactive)	> 100 µM (inactive)
N=C(N)NS(=O)(=O)c1ccc(NC(=O)c2cccc3c(NNc4ccc(C(=O)O)cc4)c4ccccc4nc23)cc1	99.1 µM (inactive)	> 100 µM (inactive)	71.3 µM (inactive)	61 µM (inactive)	> 100 µM (inactive)	52.2 µM (inactive)	> 100 µM (inactive)	> 100 µM (inactive)	33.5 µM (inactive)	48.4 µM (inactive)	> 100 µM (inactive)	> 100 µM (inactive)	24.2 µM (inactive)	> 100 µM (inactive)	46.3 µM (inactive)	> 100 µM (inactive)	> 100 µM (inactive)	> 100 µM (inactive)	> 100 µM (inactive)
COC(=O)C(=O)C(C(=O)C(=O)Nc1ccccc1C(N)=O)c1nc2ccc(Cl)cc2nc1O (centres undefined)	> 100 µM (inactive)	> 100 µM (inactive)	> 100 µM (inactive)	> 100 µM (inactive)	33.7 µM (inactive)	> 100 µM (inactive)	82.8 µM (inactive)		> 100 µM (inactive)	> 100 µM (inactive)	> 100 µM (inactive)	> 100 µM (inactive)	> 100 µM (inactive)	> 100 µM (inactive)	> 100 µM (inactive)	> 100 µM (inactive)	> 100 µM (inactive)	> 100 µM (inactive)	> 100 µM (inactive)
O=c1[nH]/c(=C/c2ccc(OCc3ccccc3)cn2)c(=O)[nH]/c1=C/c1ccccc1	0.106 µM (active)	0.128 µM (active)	0.12 µM (active)	0.59 µM (active)	0.0643 µM (active)	0.175 µM (active)	0.194 µM (active)	0.207 µM (active)	0.289 µM (active)	0.207 µM (active)	0.0402 µM (active)	> 100 µM (inactive)	14.3 µM (inactive)	0.113 µM (active)	0.141 µM (active)	0.189 µM (active)	0.0951 µM (active)	0.425 µM (active)	0.107 µM (active)
CSc1c(C(=O)Nc2ccc(Cl)cc2)c(N)nn1-c1ccccc1	> 100 µM (inactive)	9.75 µM (inactive)	> 100 µM (inactive)	40.8 µM (inactive)	21.6 µM (inactive)	> 100 µM (inactive)	> 100 µM (inactive)	> 100 µM (inactive)	> 100 µM (inactive)	> 100 µM (inactive)	> 100 µM (inactive)	> 100 µM (inactive)	> 100 µM (inactive)	> 100 µM (inactive)	> 100 µM (inactive)	21.1 µM (inactive)	22.7 µM (inactive)	> 100 µM (inactive)	> 100 µM (inactive)
CC1CN(CCO)CC(C)O1 (centres undefined)	> 100 µM (inactive)	> 100 µM (inactive)	> 100 µM (inactive)	> 100 µM (inactive)	> 100 µM (inactive)	> 100 µM (inactive)	> 100 µM (inactive)	> 100 µM (inactive)	> 100 µM (inactive)		> 100 µM (inactive)	> 100 µM (inactive)	> 100 µM (inactive)	> 100 µM (inactive)	> 100 µM (inactive)	> 100 µM (inactive)	> 100 µM (inactive)	> 100 µM (inactive)	> 100 µM (inactive)
O=C(O)CN1CCN(CC(=O)O)CCN(CC(=O)O)CCN(CC(=O)O)CC1 [TETRAXETAN]	> 100 µM (inactive)	> 100 µM (inactive)	> 100 µM (inactive)	> 100 µM (inactive)	> 100 µM (inactive)	> 100 µM (inactive)	> 100 µM (inactive)	> 100 µM (inactive)	> 100 µM (inactive)	> 100 µM (inactive)	> 100 µM (inactive)		> 100 µM (inactive)	> 100 µM (inactive)	> 100 µM (inactive)	> 100 µM (inactive)	> 100 µM (inactive)	> 100 µM (inactive)	> 100 µM (inactive)
CCCN1C(=O)CN(S(=O)(=O)c2ccc(Cl)cc2)C1=O	> 100 µM (inactive)	> 100 µM (inactive)	> 100 µM (inactive)	> 100 µM (inactive)	> 100 µM (inactive)	> 100 µM (inactive)	> 100 µM (inactive)	> 100 µM (inactive)	71 µM (inactive)	> 100 µM (inactive)	> 100 µM (inactive)	> 100 µM (inactive)	> 100 µM (inactive)	> 100 µM (inactive)	> 100 µM (inactive)		> 100 µM (inactive)	> 100 µM (inactive)	> 100 µM (inactive)
